Paper PMC11345829, “Discovery of Potent Isoquinolinequinone N-Oxides to Overcome Cancer Multidrug Resistance” (Journal of Medicinal Chemistry, 2024)

Legend:
NCI-H460 [1] = test: NCI60 five-dose GI50 (NCI data); format: cell-based; conditions: Homo sapiens, NCI data provided for comparison, read-out: NSCLC NCI-H460 GI50 (NCI)
Description: The concentration−response curve generated enables the determination of three criteria, GI50 (drug concentration at which 50% of cell growth is inhibited), total growth inhibition (TGI) and LC50 (drug concentration at which 50% of tumor cells are killed) which can be used to compare effectiveness against any compound tested in the screen since its inception.
S2.1 NCI Screening Assay Experimental details
NCI Screening Assay Experimental: Cancer cell growth assays (NCI60 screening) 5,6 One-dose study: Tested compounds were initially solubilised in DMSO, diluted into RPMI 1640 and 5% fetal bovine serum/L-glutamine, and added to 96-well plates containing cell lines previously cultured for 24 h. After 48 h incubation, the media were removed, and the cells were fixed and stained with sulforhodamine B to determine overall percent growth/ total protein content. Unbound dye was removed with five washes of 1% acetic acid, and the plates were allowed to air dry. The dye was then resolubilised in Tris buffer, and the colorimetric absorbance was measured (515 nm). Growth inhibition was measured relative to the response generated from proliferating cells cultured under identical conditions for 48 h. Data from one-dose experiments pertains to the percentage growth at […]
Five-dose study: Serial 5 × 10-fold dilution from an initial DMSO stock solution was performed, prior to incubation at each individual concentration (10 nM, 100 nM, 1 μM, 10 μM and 100 μM). Using seven absorbance measurements (time zero (Tz), control growth (C), and test growth in the presence of drug at the five concentration levels (Ti)), the percentage growth was calculated at each of the drug concentrations levels. Percentage growth inhibition was calculated as: [(Ti − Tz)/(C − Tz)] × 100 for concentrations for which Ti ≥ Tz, [(Ti − Tz)/Tz] × 100 for concentrations for which Ti < Tz. Three dose response parameters were calculated for each experimental agent. […]
was calculated from [(Ti − Tz)/(C − Tz)] × 100 = 50, which is the drug concentration resulting in a 50% reduction in the net protein increase (as measured by sulforhodamine B staining) in control cells during the drug incubation. The drug concentration resulting in total growth inhibition (TGI) was calculated from Ti = Tz. The LC50 (concentration of drug resulting in a 50% reduction in the measured protein at the end of the drug treatment as compared to that at the beginning) indicating a net loss of cells following treatment was calculated from [(Ti − Tz)/Tz] × 100 = −50. Values were calculated for each of these three parameters if the level of activity was reached; however, if the effect was not reached or was exceeded, the value for that parameter was expressed as greater or less than the maximum or minimum concentration tested.

DLD1 = test: SRB cell growth inhibition assay; format: cell-based; conditions: Homo sapiens, DLD-1, 48 h, colorectal cancer sensitive, mean ± SEM
Description: (§1) Taking into consideration the promising results of preliminary NCI screening, nine compounds (1, 2, 3, 4, 5, 20, 23, 24, 25) were selected for further screening in two counterpart pairs of sensitive and MDR cell lines. […] Two distinct pairs of counterpart drug-sensitive and MDR human tumor cell lines were used, namely the non-small lung cancer (NSCLC) NCI-H460 (same cell line as in the NCI screen) and its MDR counterpart cell line NCI-H460/R and the colorectal cancer DLD1 and its MDR counterpart cell line DLD1-TxR (Table 3). The screening was performed using the SRB assay, and the GI50 for each compound was determined by interpolation on the attained concentration−response curves and compared with NCI60 screening data (SI, Figures S62−S63; Table S21).
(§2) Two pairs of drug-sensitive and multidrug-resistant (MDR) cell lines from human nonsmall cell lung cancer (NSCLC), NCI-H460 and NCI-H460/R, and colorectal cancer, DLD1 and DLD1-TxR, kindly provided by Dr M. Pešić (Belgrade, Serbia), were used to evaluate the growth inhibition potential of the compounds 1, 2, 3, 4, 5, 20, 23, 24, an 25.[76],[77] Additionally, growth inhibition assays were performed with compound 25 on two other NSCLC cell lines, A549 and NCI-H322, obtained from the American Type Culture Collection (ATCC) and the European Collection of Authenticated Cell Cultures, respectively. The A549 cell line was maintained in Dulbecco’s Modified Eagle Medium (DMEM) supplemented with 4.5 g/L Glucose with UltraGlutamine with sodium pyruvate (Lonza, Basel Stücki, Switzerland), enriched with 10% fetal bovine serum (FBS; Biowest, Nuaillé, France). The lung fibroblast MRC-5 cell line and the remaining NSCLC and colorectal cancer cell lines were cultured in Roswell Park Memorial Institute (RPMI) 1640 (with stable glutamine and 25 mM HEPES) medium (Biowest), supplemented with 10% fetal bovine serum. […] For the sulforhodamine B (SRB) and 3D cell culture assays, the media were supplemented with 5% FBS. The remaining experiments were performed with medium supplemented with 10% FBS.
(§3) Cells were seeded at a previously determined optimal cell concentration (5.0 × 10^4 cells/mL for NSCLC cells and the nontumorigenic MRC-5 cell line and 1.0 × 10^5 cells/mL for colorectal cancer cells) and incubated at 37 °C for 24 h. […] The SRB assay was performed as previously described.[78],[79] Briefly, after fixing cells with 10% (w/v) ice-cold trichloroacetic acid (Merck Life Science), the proteins were stained with 0.4% of SRB (Merck Life Science) in acetic acid (Merck Life Science). Following washing steps in acetic acid, the bound dye was solubilized with 10 mM Tris base solution (Merck Life Science). Absorbance was measured at 510 nm in a multiplate reader (Synergy Mx, Biotek Instruments Inc., Winooski, Vermont, USA) using the Gen5 software (Biotek Instruments Inc.).

NCI-H460 [2] = test: SRB cell growth inhibition assay; format: cell-based; conditions: Homo sapiens, 48 h, NSCLC sensitive, mean ± SEM
Description: as §1, §2, §3

NCI-H460/R = test: SRB cell growth inhibition assay; format: cell-based, human; conditions: for selectivity ratio NSCLC: GI50 sensitive NCI-H460 / GI50 MDR NCI-H460/R; for GI50: Homo sapiens, NCI-H460, SRB assay, 48 h, NSCLC MDR, mean ± SEM
Procedure: Two distinct pairs of counterpart drug-sensitive and MDR human tumor cell lines were used, namely the non-small lung cancer (NSCLC) NCI-H460 (same cell line as in the NCI screen) and its MDR counterpart cell line NCI-[…] and the colorectal cancer DLD1 and its MDR counterpart cell line DLD1-TxR (Table 3). The screening was performed using the SRB assay, and the GI50 for each compound was determined by interpolation on the attained concentration-response curves and compared with NCI60 screening data (SI, Figures S62-S63; Table S21). Two pairs of drug-sensitive and multidrug-resistant (MDR) cell lines from human nonsmall cell lung cancer (NSCLC), NCI-H460 and NCI-[…], and colorectal cancer, DLD1 and DLD1-TxR, kindly provided by Dr M. […] The A549 cell line was maintained in Dulbecco's Modified Eagle Medium (DMEM) supplemented with 4.5 g/L Glucose with UltraGlutamine with sodium pyruvate (Lonza, Basel Stücki, Switzerland), enriched with 10% fetal bovine serum (FBS; Biowest, Nuaillé, France). […] For the sulforhodamine B (SRB) and 3D cell culture assays, the media were supplemented with 5% FBS. The remaining experiments were performed with medium supplemented with 10% FBS. […] The SRB assay was performed as previously described.[78],[79] Briefly, after fixing cells with 10% (w/v) ice-cold trichloroacetic acid (Merck Life Science), the proteins were stained with 0.4% of SRB (Merck Life Science) in acetic acid (Merck Life Science). Following washing steps in acetic acid, the bound dye was solubilized with 10 mM Tris base solution (Merck Life Science). Absorbance was measured at 510 nm in a multiplate reader (Synergy Mx, Biotek Instruments Inc., Winooski, Vermont, USA) using the Gen5 software (Biotek Instruments Inc.).

DLD1-TxR = test: SRB cell growth inhibition assay; format: cell-based, human; conditions: for selectivity ratio colorectal cancer: GI50 sensitive DLD1 / GI50 MDR DLD1-TxR; for GI50: Homo sapiens, SRB assay, 48 h, colorectal cancer MDR, mean ± SEM
Procedure: Two distinct pairs of counterpart drug-sensitive and MDR human tumor cell lines were used, namely the non-small lung cancer (NSCLC) NCI-H460 (same cell line as in the NCI screen) and its MDR counterpart cell line NCI-H460/R and the colorectal cancer DLD1 and its MDR counterpart cell line DLD1-TxR (Table 3). The screening was performed using the SRB assay, and the GI50 for each compound was determined by interpolation on the attained concentration−response curves and compared with NCI60 screening data (SI, Figures S62−S63; Table S21).
as §2, §3

[3] = system: NCI60 tumor cell line panel; set-up: method as in PMID 31894828; conditions: against 53 human tumor cell lines; cited from earlier work
NCI-ADR/RES = system: NCI-ADR/RES; set-up: method as in PMID 31894828; conditions: MDR cell line, high P-gp; read-out: growth inhibition (GI50) NCI/ADR-RES; cited from earlier work
NCI-H460/R spheroids = test: Cell Titer-Glo 3D spheroid viability assay; format: cell-based, human; conditions: 48 h; 25 at 0.35 and 0.7 μM; etoposide 2 μM
Procedure: Results are presented as the % of luciferase luminescence relative to the “blank” cells (medium).
Spheroid formation was conducted in 12-series agarose 3D Petri Dish micromolds (MicroTissues Technology, MicroTissues Inc., Sigma-Aldrich). The agarose micromolds were prepared using 1% agarose in a 0.9% NaCl solution and then placed in 12-well plates and equilibrated with RPMI supplemented with 10% FBS for at least 2 h before cell seeding. Cell suspensions corresponding to 500 cells per spheroid of the NSCLC cell lines (NCI-H460 and NCI-H460/R), and 1000 cells per spheroid of the colorectal cancer cell lines (DLD1 and DLD1-TxR) were seeded in the corresponding micromolds. […] Spheroid formation was monitored with the Leica DMi1 microscope. […] At the end of the treatment, images from at least 8 different spheroids per condition were captured on the Leica Dmi1 microscope, and posteriorly analyzed with the automated open-source software AnaSP.[82] Spheroid parameters, such as equivalent diameter, circularity, and compactness, were calculated.
Spheroid viability was determined through the luminescence-based Cell Titer-Glo 3D cell viability assay (Promega). […] The plate was then incubated in the dark for 5 min with agitation and allowed to rest for 25 min before luminescence measurement. Luminescence was quantified using the microplate reader Synergy MX coupled with the GEN5 software. […]

SMILES	GI50 (NCI-H460 [1])	GI50 (DLD1)	GI50 (NCI-H460 [2])	selectivity ratio NSCLC (NCI-H460/R)	GI50 (NCI-H460/R)	selectivity ratio colorectal cancer (DLD1-TxR)	GI50 (DLD1-TxR)	GI50 [3]	GI50 (NCI-ADR/RES)	viability of NCI-H460/R spheroids (NCI-H460/R spheroids)
COC(=O)c1c2c(c(C)[n+]([O-])c1C)C(=O)C(NCc1ccccc1)=CC2=O [Compound 1]	2720 nM	4.89 ± 0.51 µM	3.06 ± 0.15 µM	1.3	2.29 ± 0.28 µM	1.7	2970 ± 130 nM	2520 nM	2670 nM	–
COC(=O)c1c2c(c(C)[n+]([O-])c1C)C(=O)C=CC2=O [Compound 3]	731 nM	6.62 ± 0.35 µM	8.43 ± 1.41 µM	2	4.28 ± 1.08 µM	1.4	4800 ± 70 nM	1750 nM	–	–
COc1cc([C@@H]2c3cc4c(cc3[C@@H](O[C@@H]3O[C@@H]5CO[C@@H](C)O[C@H]5[C@H](O)[C@H]3O)[C@H]3COC(=O)[C@H]23)OCO4)cc(OC)c1O [etoposide, reference compound]	–	–	–	–	–	–	–	–	–	did not significantly affect the viability of the spheroids
CC(=O)O[C@H]1C(=O)[C@@]2(C)[C@H]([C@H](OC(=O)c3ccccc3)[C@]3(O)C[C@H](OC(=O)[C@H](O)[C@@H](NC(=O)c4ccccc4)c4ccccc4)C(C)=C1C3(C)C)[C@]1(OC(C)=O)CO[C@@H]1C[C@@H]2O [paclitaxel, reference compound]	–	0.02 ± 0.003 µM	–	–	–	–	970 ± 210 nM	–	–	–
